Source: US6358885B1, “Substituted phenylheterocyclic herbicides” (Mississippi State University, priority 1992, dated 2002)

Key:
[1] = system: bedstraw; experiment: Test C preemergence/postemergence greenhouse plant response rating 0 to 100; format: in vivo, Galium aparine; conditions: POSTEMERGENCE; for Plant response rating, Bedstraw: 62 g/ha, 0 to 100 scale
Procedure, shortened: (§1)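 Compounds in non-phytotoxic solvent applied preemergence to sandy loam one day after planting, postemergence at the 1–4 leaf stage, or to ~2.5 cm floodwater over silt loam.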

[2] = system: umbrella sedge; experiment: Test C flood test plant response rating 0 to 100; format: in vivo, Cyperus difformis; conditions: for Plant response rating Umbrella sedge: flood test species listed under POSTEMERGENCE, 62 g/ha, 0 to 100 scale
Procedure, shortened: as §1

[3] = system: wild buckwheat; experiment: Test B preemergence/postemergence greenhouse plant response rating 0 to 10; format: in vivo, Polygonum convolvulus; conditions: 0 to 10 scale
Procedure, shortened: (§2)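 Both application timings were run together: seeds got compound preemergence, and established seedlings (two to eighteen cm) got it postemergence. Non-phytotoxic solvent carried the chemical. Ratings are visual, versus controls, at twelve to sixteen days.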

[4] = system: sugar beet; experiment: Test C preemergence/postemergence greenhouse plant response rating 0 to 100; format: in vivo, Beta vulgaris; conditions: POSTEMERGENCE; for Plant response rating, Sugar beet: 62 g/ha, 0 to 100 scale
Procedure, shortened: as §1

[5] = system: wild oat; experiment: as above; format: in vivo, Avena fatua; conditions: POSTEMERGENCE; for Plant response rating, Wild oat: 62 g/ha, 0 to 100 scale
Procedure, shortened: as §1

[6] = system: ryegrass; experiment: as above; format: in vivo, Lolium multiflorum; conditions: POSTEMERGENCE; for Plant response rating Ryegrass: 62 g/ha, 0 to 100 scale
Procedure, shortened: as §1

[7] = system: chickweed; experiment: Test B preemergence/postemergence greenhouse plant response rating 0 to 10; format: in vivo, Stellaria media; conditions: POSTEMERGENCE; for Plant response rating, Chickweed: 0 to 10 scale
Procedure, shortened: as §2

[8] = system: barnyardgrass; experiment: as above; format: in vivo, Echinochloa crus-galli; conditions: for Plant response rating, Barnyardgrass: 0 to 10 scale
Procedure, shortened: as §2

[9] = system: crabgrass; experiment: Test C preemergence/postemergence greenhouse plant response rating 0 to 100; format: in vivo, Digitaria sanguinalis; conditions: POSTEMERGENCE; for Plant response rating, Crabgrass: 62 g/ha, 0 to 100 scale
Procedure, shortened: as §1

[10] = system: smooth crabgrass; experiment: Test G preemergence/postemergence greenhouse plant response rating 0 to 100; format: in vivo, Digitaria ischaemum; conditions: 0 to 100 scale
Excerpt: Seeds, rhizomes, or plant parts of alfalfa (Medicago ativa), annual bluegrass (Poa annua), bermudagrass (Cynodon dactylon), broadleaf signalgrass (Brachiaria plantaginea), common purslane (Portulaca oleracea), common ragweed (Ambrosia elatior), […] (Paspalum dilatatum), goosegrass (Eleusine indica), guineagrass (Panicum maximum), […] exaltata), johnsongrass (Sorghum halepense), large crabgrass (Digitaria sanguinalis), peanut (Arachis hypoagaea), pitted morningglory (Ipomoea lacunosa), purple nutsedge (Cyperus rotundus), sandbur (Cenchrus echinatus), smooth crabgrass (Digitaria ischaemum) and yellow nutsedge (Cyperus esculentus) were planted into greenhouse pots containing greenhouse planting medium. Each pot contained only one plant species. The test compound was dissolved in a non-phytotoxic solvent and applied preemergence and/or postemergence to the plants. Preemergence applications were made within one day of planting the seeds or plant parts. Postemergence applications were applied when the plants were in the two to four leaf stage (three to twenty cm). Test chemicals were dissolved in a non-phytotoxic solvent and applied preemergence and postemergence to the plants. Untreated control plants and treated plants were placed in the greenhouse and visually evaluated for injury at 13 to 21 days after herbicide application. […] A dash (-) response indicates no test result.

[11] = system: corn; experiment: Test C preemergence/postemergence greenhouse plant response rating 0 to 100; format: in vivo, Zea mays; conditions: POSTEMERGENCE; for Plant response rating, Corn: 62 g/ha, 0 to 100 scale
Procedure, shortened: as §1

[12] = system: rape; experiment: Test B preemergence/postemergence greenhouse plant response rating 0 to 10; format: in vivo, Brassica napus; conditions: 0 to 10 scale
Procedure, shortened: as §2

[13] = system: downy brome; experiment: Test C preemergence/postemergence greenhouse plant response rating 0 to 100; format: in vivo, Bromus tectorum; conditions: POSTEMERGENCE; for Plant response rating Downy Brome: 62 g/ha, 0 to 100 scale
Procedure, shortened: as §1

[14] = POSTEMERGENCE section, flood test, Rate 1 g/ha
[15] = POSTEMERGENCE section, flood test, Rate 4 g/ha
[16] = Rate 16 g/ha, under POSTEMERGENCE head (flood test species)

CC(C)N1C(=O)COc2cc(F)c(-c3nn4c(c3Cl)CCCC4)cc21 [Compound 31]
Plant response rating, Bedstraw [1]: 100 | Plant response rating (0 to 100), Bedstraw ([1]; Rate 1 g/ha): 75 | Plant response rating (0 to 100), Bedstraw ([1]; Rate 4 g/ha): 85 | Plant response rating (0 to 100), Bedstraw ([1]; Rate 16 g/ha): 100 | Plant response rating (0 to 100), Umbrella sedge [2, 14]: 0 | Plant response rating (0 to 100), Umbrella sedge [2, 15]: 0 | Plant response rating (0 to 100), Umbrella sedge [2, 16]: 0 | Plant response rating Umbrella sedge [2]: 80 | Plant response rating, Wild buckwheat ([3]; POSTEMERGENCE, Rate 10 g/ha): 10 | Plant response rating, Wild buckwheat ([3]; POSTEMERGENCE, Rate 50 g/ha): 10 | Plant response rating, Wild buckwheat ([3]; PREEMERGENCE, Rate 50 g/ha): 10 | Plant response rating, Sugar beet [4]: 100 | Plant response rating (0 to 100), Sugar beet ([4]; Rate 1 g/ha): 60 | Plant response rating (0 to 100), Sugar beet ([4]; Rate 4 g/ha): 100 | Plant response rating (0 to 100), Sugar beet ([4]; Rate 16 g/ha): 100 | Plant response rating, Wild oat [5]: 50 | Plant response rating (0 to 100), Wild oat ([5]; Rate 1 g/ha): 10 | Plant response rating (0 to 100), Wild oat ([5]; Rate 4 g/ha): 30 | Plant response rating (0 to 100), Wild oat ([5]; Rate 16 g/ha): 30 | Plant response rating Ryegrass [6]: 40 | Plant response rating (0 to 100), Ryegrass ([6]; Rate 1 g/ha): 10 | Plant response rating (0 to 100), Ryegrass ([6]; Rate 4 g/ha): 20 | Plant response rating (0 to 100), Ryegrass ([6]; Rate 16 g/ha): 30 | Plant response rating, Chickweed ([7]; Rate 10 g/ha): 10 | Plant response rating (0 to 10 scale), Chickweed ([7]; Rate 50 g/ha): 10 | Plant response rating, Barnyardgrass ([8]; POSTEMERGENCE, Rate 10 g/ha): 4 | Plant response rating (0 to 10 scale), Barnyardgrass ([8]; POSTEMERGENCE, Rate 50 g/ha): 6 | Plant response rating, Barnyardgrass ([8]; PREEMERGENCE, Rate 10 g/ha): 0 | Plant response rating, Barnyardgrass ([8]; PREEMERGENCE, Rate 50 g/ha): 3 | Plant response rating, Crabgrass [9]: 50 | Plant response rating (0 to 100), Crabgrass ([9]; Rate 1 g/ha): 10 | Plant response rating (0 to 100), Crabgrass ([9]; Rate 4 g/ha): 20 | Plant response rating (0 to 100), Crabgrass ([9]; Rate 16 g/ha): 30 | Plant response rating, Smooth Crabgras ([10]; POSTEMERGENCE, Rate 125 g/ha): 0 | Plant response rating, Smooth Crabgras ([10]; POSTEMERGENCE, Rate 250 g/ha): 0 | Plant response rating, Smooth Crabgras ([10]; PREEMERGENCE, Rate 125 g/ha): 0 | Plant response rating, Smooth Crabgras ([10]; PREEMERGENCE, Rate 250 g/ha): 0 | Plant response rating, Corn [11]: 50 | Plant response rating (0 to 100), Corn ([11]; Rate 1 g/ha): 20 | Plant response rating (0 to 100), Corn ([11]; Rate 4 g/ha): 30 | Plant response rating (0 to 100), Corn ([11]; Rate 16 g/ha): 40 | Plant response rating, Rape ([12]; POSTEMERGENCE, Rate 10 g/ha): 5 | Plant response rating, Rape ([12]; POSTEMERGENCE, Rate 50 g/ha): 9 | Plant response rating, Rape ([12]; PREEMERGENCE, Rate 50 g/ha): 1 | Plant response rating Downy Brome [13]: 40 | Plant response rating (0 to 100), Downy Brome ([13]; Rate 1 g/ha): 10 | Plant response rating (0 to 100), Downy Brome ([13]; Rate 4 g/ha): 20 | Plant response rating (0 to 100), Downy Brome ([13]; Rate 16 g/ha): 40

C=CCN1C(=O)COc2cc(F)c(-c3nn4c(c3Cl)CCCC4)cc21 [Compound 33]
Plant response rating, Bedstraw [1]: 100 | Plant response rating (0 to 100), Bedstraw ([1]; Rate 1 g/ha): 80 | Plant response rating (0 to 100), Bedstraw ([1]; Rate 4 g/ha): 90 | Plant response rating (0 to 100), Bedstraw ([1]; Rate 16 g/ha): 100 | Plant response rating (0 to 100), Umbrella sedge [2, 14]: 10 | Plant response rating (0 to 100), Umbrella sedge [2, 15]: 20 | Plant response rating (0 to 100), Umbrella sedge [2, 16]: 70 | Plant response rating Umbrella sedge [2]: 80 | Plant response rating, Wild buckwheat ([3]; POSTEMERGENCE, Rate 10 g/ha): 10 | Plant response rating, Wild buckwheat ([3]; POSTEMERGENCE, Rate 50 g/ha): 10 | Plant response rating, Sugar beet [4]: 100 | Plant response rating (0 to 100), Sugar beet ([4]; Rate 1 g/ha): 100 | Plant response rating (0 to 100), Sugar beet ([4]; Rate 4 g/ha): 100 | Plant response rating (0 to 100), Sugar beet ([4]; Rate 16 g/ha): 100 | Plant response rating, Wild oat [5]: 60 | Plant response rating (0 to 100), Wild oat ([5]; Rate 1 g/ha): 30 | Plant response rating (0 to 100), Wild oat ([5]; Rate 4 g/ha): 40 | Plant response rating (0 to 100), Wild oat ([5]; Rate 16 g/ha): 50 | Plant response rating Ryegrass [6]: 60 | Plant response rating (0 to 100), Ryegrass ([6]; Rate 1 g/ha): 30 | Plant response rating (0 to 100), Ryegrass ([6]; Rate 4 g/ha): 40 | Plant response rating (0 to 100), Ryegrass ([6]; Rate 16 g/ha): 50 | Plant response rating, Chickweed ([7]; Rate 10 g/ha): 10 | Plant response rating, Chickweed ([7]; Rate 50 g/ha): 10 | Plant response rating, Barnyardgrass ([8]; POSTEMERGENCE, Rate 10 g/ha): 4 | Plant response rating, Barnyardgrass ([8]; POSTEMERGENCE, Rate 50 g/ha): 7 | Plant response rating, Barnyardgrass ([8]; PREEMERGENCE, Rate 10 g/ha): 2 | Plant response rating, Barnyardgrass ([8]; PREEMERGENCE, Rate 50 g/ha): 3 | Plant response rating, Crabgrass [9]: 20 | Plant response rating (0 to 100), Crabgrass ([9]; Rate 1 g/ha): 0 | Plant response rating (0 to 100), Crabgrass ([9]; Rate 4 g/ha): 0 | Plant response rating (0 to 100), Crabgrass ([9]; Rate 16 g/ha): 0 | Plant response rating, Smooth Crabgras ([10]; POSTEMERGENCE, Rate 125 g/ha): 0 | Plant response rating, Smooth Crabgras ([10]; POSTEMERGENCE, Rate 250 g/ha): 0 | Plant response rating, Smooth Crabgras ([10]; PREEMERGENCE, Rate 125 g/ha): 0 | Plant response rating, Smooth Crabgras ([10]; PREEMERGENCE, Rate 250 g/ha): 0 | Plant response rating, Corn [11]: 40 | Plant response rating (0 to 100), Corn ([11]; Rate 1 g/ha): 20 | Plant response rating (0 to 100), Corn ([11]; Rate 4 g/ha): 30 | Plant response rating (0 to 100), Corn ([11]; Rate 16 g/ha): 30 | Plant response rating, Rape ([12]; POSTEMERGENCE, Rate 10 g/ha): 10 | Plant response rating, Rape ([12]; POSTEMERGENCE, Rate 50 g/ha): 10 | Plant response rating, Rape ([12]; PREEMERGENCE, Rate 50 g/ha): 5 | Plant response rating Downy Brome [13]: 60 | Plant response rating (0 to 100), Downy Brome ([13]; Rate 1 g/ha): 30 | Plant response rating (0 to 100), Downy Brome ([13]; Rate 4 g/ha): 40 | Plant response rating (0 to 100), Downy Brome ([13]; Rate 16 g/ha): 60
